Patent US20220281930A1, “COMPOSITIONS AND METHODS FOR THE TREATMENT OF PATHOLOGICAL PAIN AND ITCH” (DUKE UNIVERSITY, priority 2019, published 2022)

Tests used:
[1] = test system: beta-cat binding to KCC2 promoter; test: ChIP with anti-beta-cat antibody at KCC2 promoter; assay type: cell-based, rat; details: KP-treated vs vehicle
Method: ChIP assay was carried out as described previously (Yeo et al., 2009, J Neurosci 29:14652-14662; Yeo et al., 2013, Proc Natl Acad Sci USA 110:4315-4320). Primary cortical neurons (0.7×10^6) were used for each ChIP experiment. Cells were crosslinked with 1% formaldehyde for 30 min, washed twice with cold PBS, resuspended in lysis buffer [1% SDS, 10 mm EDTA, and 50 mm Tris-HCl, pH 8.0, with protease inhibitor cocktail (Roche)], and sonicated for 15 s pulses. The lysates were clarified by centrifugation at 10,000 rpm for 10 min at 4° C. in a microcentrifuge. One-tenth of the total lysate was used as input control of genomic DNA. Supernatants were collected and diluted in buffer (1% Triton X-100, 2 mm EDTA, 150 mm NaCl, 20 mm Tris-HCl, pH 8.0, and protease inhibitor cocktail) followed by immunoclearing with 1 mg of salmon sperm DNA, 10 ml of rabbit IgG, and 20 ml of protein A/G-Sepharose (Santa Cruz Biotechnology) for 1 h at 4° C. Immunoprecipitation was performed overnight at 4° C. with 2 mg of each specific antibody. Precipitates were washed sequentially for 10 min each in TSE1 buffer (0.1% SDS, 1% Triton X-100, 2 mm EDTA, 150 mm NaCl, and 20 mm Tris-HCl, pH 8.0), TSE2 (TSE1 with 500 mm NaCl), and TSE3 (0.25 m LiCl, 1% NP-40, 1% deoxycholate, 1 mm EDTA, and 10 mm Tris-HCl, pH 8.0). […]

[2] = test system: DNFB chronic contact dermatitis model; test: DNFB chronic contact dermatitis scratching behavior; assay type: in vivo, mouse; details: daily i.p. 30 mg/kg
Method: To assess scratching behavior as a behavioral correlate of itch, mice were shaved at the dorsal neck where topical application of 0.5% DNFB was applied (day 1). […] On day 12, mice were allowed to acclimate to a Plexiglas chamber for at least 30 mins before performing itch behavior test. Scratching behavior was recorded by a Panasonic video camera for a 30-min observation period. Hind limb scratching behavior directed toward the shaved area at the nape of neck was observed. One scratch is defined as a lifting of the hind limb toward the injection site and then a replacing of the limb back to the floor, regardless of how many scratching strokes take place between those two movements. Behavioral analysis was conducted by observers blinded to treatment procedure. DNFB-induced scratching behavior was recorded on day 12 for 1 h. […] Based on these findings, KP's anti-pruritic effects were assessed because inhibitory transmission in the SCDH plays an important role in chronic pruritus (Akiyama et al., 2015, Pain 156:1240-1246.; Bourane et al., 2015, Science 350:550-554; Braz et al., 2017, Prog Brain Res 231:87-105; Braz et al., 2014, J Clin Invest 124:3612-3616; Koch et al., 2018, Annual review of physiology 80:189-217; Mishra and Hoon, 2015, Handbook of experimental pharmacology 226:151-162).

[3] = test system: delta-cat binding to KCC2 promoter; test: ChIP with anti-delta-cat antibody at KCC2 promoter; assay type: cell-based, rat; details: KP-treatment vs vehicle
Method: ChIP assay was carried out as described previously (Yeo et al., 2009, J Neurosci 29:14652-14662; Yeo et al., 2013, Proc Natl Acad Sci USA 110:4315-4320). Primary cortical neurons (0.7×10^6) were used for each ChIP experiment. Cells were crosslinked with 1% formaldehyde for 30 min, washed twice with cold PBS, resuspended in lysis buffer [1% SDS, 10 mm EDTA, and 50 mm Tris-HCl, pH 8.0, with protease inhibitor cocktail (Roche)], and sonicated for 15 s pulses. The lysates were clarified by centrifugation at 10,000 rpm for 10 min at 4° C. in a microcentrifuge. One-tenth of the total lysate was used as input control of genomic DNA. Supernatants were collected and diluted in buffer (1% Triton X-100, 2 mm EDTA, 150 mm NaCl, 20 mm Tris-HCl, pH 8.0, and protease inhibitor cocktail) followed by immunoclearing with 1 mg of salmon sperm DNA, 10 ml of rabbit IgG, and 20 ml of protein A/G-Sepharose (Santa Cruz Biotechnology) for 1 h at 4° C. Immunoprecipitation was performed overnight at 4° C. with 2 mg of each specific antibody. Precipitates were washed sequentially for 10 min each in TSE1 buffer (0.1% SDS, 1% Triton X-100, 2 mm EDTA, 150 mm NaCl, and 20 mm Tris-HCl, pH 8.0), TSE2 (TSE1 with 500 mm NaCl), and TSE3 (0.25 m LiCl, 1% NP-40, 1% deoxycholate, 1 mm EDTA, and 10 mm Tris-HCl, pH 8.0). Precipitates were then washed twice with 10 mm Tris/0.1 mm EDTA, pH 7.8 and extracted with 1% SDS containing 0.1 m NaHCO3. Eluates were pooled and heated at 65° C. for 4 h to reverse formaldehyde crosslinking. DNA fragments were purified with Qiagen Qiaquick spin kit. For ChIP PCR, 1 l of a 25 l DNA extraction was used.
Consequently, catenins effects on the KCC2 promoter was explored.

brain reward mechanisms = test: Conditioned place preference (CPP); assay type: in vivo, mouse; details: 30 mg/kg i.p.; KP vs vehicle
Method: Conditioned place preference (CPP) was conducted using a CPP box, which consists of two conditioning chambers distinguished by visual and sensory cues, along with a small buffering chamber. All mice received a 3-day preconditioning habituation period with free access to both conditioning chambers and the time spent in each chamber was recorded for 15 min on day 3 after habituation. On conditioning days (day 4-10), mice first received the vehicle control (i.p. 5% DMSO, 5% Tween-80 in normal saline) paired with a randomly chosen chamber in the morning. After 4 hours, mice received KP (i.p. 30 mg/kg) or vehicle, paired with the other chamber. During the conditioning, mice were allowed to stay only in the paired chamber for 15 min without access to other chambers. On test day (d11), mice were placed in the buffering chamber with free access to both conditioning chambers and choice behavior was recorded for 15 min. The CPP scores were calculated as post-conditioning time minus preconditioning time spent in the paired chamber.
With these beneficial effects of KP on pathologic pain and itch, whether KP had undesirable effects on the CNS in terms of sedation, impairment of motor stamina, balance and coordination was assessed. […]

[4] = test system: inflammatory pain, evoked by peripheral tissue injection of CFA; test: CFA inflammatory pain model; assay type: in vivo, mouse
Method: For pain-related behavior, mechanical allodynia was assessed with von Frey filaments (Ugo Basile, Italy). The mice were placed on a 5×5-mm wire-mesh grid floor in individual compartments to avoid visual stimulation and allowed to adapt for 0.5 h prior to the von Frey test. The von Frey filament was then applied to the middle of the plantar surface of the hind paw with 5 g force. The withdrawal responses following the hind paw stimulation were measured at least three times, and the mechanical allodynia, which was defined as an increase in the number of withdrawal responses to the stimulation, was compared. In addition, paws were stimulated with heat from underneath applied by an infrared beam (Hargreaves' test apparatus, IR level 40; Ugo Basile), and withdrawal latencies were recorded. […] Thus, in vivo, KP functions as an analgesic when administered systemically in injury-related pain models.

Q: With `O=C1Cc2c([nH]c3ccc(Br)cc23)-c2ccccc2N1` [kenpaullone, 9-bromo-7,12-dihydro-indolo [3,2-d] [1]benzazepin-6(5H)-one] as the compound, how does the “binding of beta-cat to TCF site” value [1] read?
A: Its value is “significantly increases binding”.

Q: And the “scratching behavior of sensitized sites” value [2]?
A: The value was “significantly reduced robust scratching behavior”.

Q: And the “binding of delta-cat to Kaiso1 site” value [3]?
A: Its value is “significantly reduced binding”.

Q: And the “binding of delta-cat to Kaiso2 site” value [3]?
A: The value was “significantly increases binding”.

Q: And the “binding of delta-cat to TCF site” value [3]?
A: Its value is “non-significant increase”.

Q: And the CPP scores (brain reward mechanisms)?
A: Its CPP scores is “No significant difference in CPP scores”.

Q: What about the “sensitized withdrawal thresholds to mechanical cues” value ([4]; KP 10 and 30 mg/kg, no significant difference between doses) of the same compound?
A: The value was “significantly less sensitive”.

Q: And the thermal pain threshold ([4]; both low and high dose KP)?
A: The thermal pain threshold was “significantly less sensitive only at day 7”.
